Measured values: ChEMBL document CHEMBL1148684, “Benzimidazole-2-carboxamides as novel NR2B selective NMDA receptor antagonists” (Bioorg Med Chem Lett, 2006)

Assays:
Glutamate NMDA receptor = experiment: Inhibition of NMDA-evoked increase in intracellular calcium ion in rat cortical cells; type: functional, cell-based
[1] = biological target: Glutamate receptor ionotropic, NMDA 2B (Rattus norvegicus, UniProt Q00960); experiment: Displacement of [3H]Ro25-6981 from NR2B NMDA receptor in rat forebrain membrane; type: cell membranes
[2] = Inhibition of NMDA-evoked current in EcR293 cells transfected with NR1/NR2D upto 10 uM by patch clamp method; type: functional, HEK293
Mus musculus = experiment: Analgesic activity against formalin-induced persistent pain in orally dosed NMRI mouse assessed as decrease in licking time relative to control; type: functional; conditions: po
[3] = biological target: Glutamate NMDA receptor; GRIN1/GRIN2A (Homo sapiens) (UniProt Q05586+Q12879); experiment: Inhibition of NMDA-evoked current in EcR293 cells transfected with NR1/NR2A upto 10 uM by patch clamp method; type: functional, cell-based; conditions: HEK293

Glutamate receptor ionotropic, NMDA 2B, sequence (Q00960 whole entry): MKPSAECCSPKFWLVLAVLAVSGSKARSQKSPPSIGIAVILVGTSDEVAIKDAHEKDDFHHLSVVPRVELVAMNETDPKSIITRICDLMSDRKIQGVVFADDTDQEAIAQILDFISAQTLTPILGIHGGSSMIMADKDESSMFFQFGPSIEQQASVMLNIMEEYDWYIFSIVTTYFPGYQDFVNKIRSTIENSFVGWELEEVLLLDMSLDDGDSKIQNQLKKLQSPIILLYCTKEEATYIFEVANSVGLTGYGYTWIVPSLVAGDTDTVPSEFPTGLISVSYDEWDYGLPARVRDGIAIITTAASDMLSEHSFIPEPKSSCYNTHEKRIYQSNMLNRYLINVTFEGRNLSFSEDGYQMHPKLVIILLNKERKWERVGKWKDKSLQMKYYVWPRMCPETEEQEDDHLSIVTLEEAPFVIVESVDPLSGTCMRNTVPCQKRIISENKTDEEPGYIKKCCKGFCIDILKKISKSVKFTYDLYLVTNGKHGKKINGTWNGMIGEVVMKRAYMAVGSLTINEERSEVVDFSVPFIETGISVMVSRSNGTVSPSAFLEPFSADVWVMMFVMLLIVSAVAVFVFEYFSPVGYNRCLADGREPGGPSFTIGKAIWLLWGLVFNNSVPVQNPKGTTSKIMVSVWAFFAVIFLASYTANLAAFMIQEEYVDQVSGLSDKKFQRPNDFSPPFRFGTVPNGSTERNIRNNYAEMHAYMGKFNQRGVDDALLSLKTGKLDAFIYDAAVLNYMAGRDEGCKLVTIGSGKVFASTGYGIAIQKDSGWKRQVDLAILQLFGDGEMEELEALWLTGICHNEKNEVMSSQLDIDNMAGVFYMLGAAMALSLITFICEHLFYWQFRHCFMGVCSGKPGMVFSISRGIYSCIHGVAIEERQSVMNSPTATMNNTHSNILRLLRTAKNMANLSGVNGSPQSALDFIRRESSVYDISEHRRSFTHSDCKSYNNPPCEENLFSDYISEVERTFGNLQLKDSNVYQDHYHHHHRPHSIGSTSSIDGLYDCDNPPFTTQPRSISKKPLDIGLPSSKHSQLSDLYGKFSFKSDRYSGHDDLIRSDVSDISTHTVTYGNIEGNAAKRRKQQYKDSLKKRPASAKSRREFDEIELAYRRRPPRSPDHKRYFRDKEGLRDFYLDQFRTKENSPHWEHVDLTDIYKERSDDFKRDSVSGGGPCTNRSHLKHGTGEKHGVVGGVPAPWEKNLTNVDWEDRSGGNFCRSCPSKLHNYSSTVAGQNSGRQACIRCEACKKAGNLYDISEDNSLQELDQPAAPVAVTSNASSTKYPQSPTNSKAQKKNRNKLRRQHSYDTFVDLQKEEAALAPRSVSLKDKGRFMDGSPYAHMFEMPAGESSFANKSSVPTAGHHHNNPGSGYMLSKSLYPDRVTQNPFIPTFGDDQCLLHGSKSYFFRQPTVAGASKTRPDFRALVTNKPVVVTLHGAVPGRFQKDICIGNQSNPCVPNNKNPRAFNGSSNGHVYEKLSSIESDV

Structure (SMILES): Cc1cccc(CC2CCN(C(=O)c3nc4ccc(O)cc4[nH]3)CC2)c1
- IC50 (Glutamate NMDA receptor): 2.4 nM
- IC50 [1]: 5 nM

Structure (SMILES): CS(=O)(=O)Nc1ccc2nc(CN3CCC(Cc4ccccc4)CC3)[nH]c2c1
- IC50 (Glutamate NMDA receptor): 8.6 nM
- IC50 [1]: 3.5 nM

Structure (SMILES): COc1cccc(CC2CCN(C(=O)c3nc4ccc(O)cc4[nH]3)CC2)c1
- IC50 (Glutamate NMDA receptor): 2.5 nM
- IC50 [1]: 3.2 nM

Structure (SMILES): Cc1ccc(OC2CCN(C(=O)c3nc4ccc(O)cc4[nH]3)CC2)cc1
- IC50 (Glutamate NMDA receptor): 1.1 nM
- IC50 [1]: 3 nM

Structure (SMILES): Cc1ccccc1CC1CCN(C(=O)c2nc3cc(O)ccc3[nH]2)CC1
- IC50 (Glutamate NMDA receptor): 12 nM
- IC50 [1]: 8.4 nM

Structure (SMILES): O=C(c1nc2ccc(O)cc2[nH]1)N1CCC(Cc2cccc(F)c2)CC1
- IC50 (Glutamate NMDA receptor): 6 nM
- IC50 [1]: 5.2 nM

Structure (SMILES): Nc1ccc2[nH]c(C(=O)N3CCC(Cc4ccccc4)CC3)nc2c1
- IC50 (Glutamate NMDA receptor): 40 nM
- IC50 [1]: 143 nM

Structure (SMILES): O=C(c1nc2ccc(O)cc2[nH]1)N1CCC(Oc2ccc(F)cc2)CC1
- IC50 (Glutamate NMDA receptor): 2.9 nM
- IC50 [1]: 6 nM

Structure (SMILES): Cc1ccc(CC2CCN(C(=O)c3nc4ccc(O)cc4[nH]3)CC2)cc1
- IC50 (Glutamate NMDA receptor): 8.7 nM
- IC50 [1]: 4.4 nM

Structure (SMILES): O=C(c1nc2ccc(O)cc2[nH]1)N1CCC(Oc2ccc(Cl)cc2)CC1
- IC50 (Glutamate NMDA receptor): 1.7 nM
- IC50 [1]: 14 nM

Structure (SMILES): O=C(c1nc2ccc(O)cc2[nH]1)N1CCC(Cc2ccccc2)CC1
- Inhibition [2]: <20%
- IC50 [1]: 4 nM
- ED50 (Mus musculus): 1.6 mg/kg
- inhibition [3]: < 20%

Structure (SMILES): C[C@@H](CN1CCC(Cc2ccccc2)CC1)[C@@H](O)c1ccc(O)cc1
- IC50 (Glutamate NMDA receptor): 159 nM
- IC50 [1]: 6 nM

Structure (SMILES): O=C(c1nc2c(O)cccc2[nH]1)N1CCC(Cc2ccccc2)CC1
- IC50 (Glutamate NMDA receptor): 3 nM
- IC50 [1]: 10 nM

Structure (SMILES): CS(=O)(=O)Nc1ccc2[nH]c(C(=O)N3CCC(Cc4ccccc4)CC3)nc2c1
- IC50 (Glutamate NMDA receptor): 1.3 nM
- IC50 [1]: 3 nM

Structure (SMILES): O=C(c1nc2ccc(O)cc2[nH]1)N1CCC(Cc2ccc(F)cc2)CC1
- IC50 (Glutamate NMDA receptor): 1.2 nM
- IC50 [1]: 4 nM

Structure (SMILES): O=c1[nH]c2ccc([S+]([O-])CCN3CCC(Cc4ccc(F)cc4)CC3)cc2o1 (centres undefined) [BESONPRODIL]
- IC50 (Glutamate NMDA receptor): 6.6 nM
- IC50 [1]: 4 nM
